# Patent US10294202B2, “Pyrrolidinones as herbicides” (FMC Corporation, priority 2013, dated 2019)
# What was measured:
# barnyardgrass [1] = experiment: Test A pre-/postemergence herbicide test; type: in vivo, Echinochloa crus-galli
# Summary of the method: (§1)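 Directed soil spray to seeded pots (preemergence) or spray onto one- to two-leaf seedlings 2–10 cm tall (postemergence); loam/sand substrate throughout. Evaluated visually after about 10 days against untreated plants, 0 = no effect, 100 = complete control.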
# kochia = experiment: Test A pre-/postemergence herbicide test; type: in vivo, Kochia scoparia
# Summary of the method: as §1
# ragweed = experiment: Test A pre-/postemergence herbicide test; type: in vivo, Ambrosia elatior
# Summary of the method: as §1
# ryegrass, Italian = experiment: Test A pre-/postemergence herbicide test; type: in vivo, Lolium multiflorum
# Summary of the method: as §1
# giant foxtail = experiment: Test A pre-/postemergence herbicide test; type: in vivo, Setaria faberii
# Summary of the method: as §1
# pigweed = experiment: Test A pre-/postemergence herbicide test; type: in vivo, Amaranthus retroflexus
# Summary of the method: as §1
# wheat = experiment: Test A pre-/postemergence herbicide test; type: in vivo, Triticum aestivum; conditions: Postemergence
# Summary of the method: as §1
# corn = experiment: Test A pre-/postemergence herbicide test; type: in vivo, Zea mays; conditions: Postemergence
# Summary of the method: as §1
# blackgrass = experiment: Test A postemergence herbicide test; type: in vivo, Alopecurus myosuroides
# Summary of the method: (§2)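 Visual injury rating, 0 (no effect) to 100 (complete control), versus untreated controls ~10 days after treatment. Postemergence spray applied at one- to two-leaf stage, plants 2–10 cm tall, potted in loam soil/sand. Greenhouse-held.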
# galium = experiment: Test A postemergence herbicide test; type: in vivo, Galium aparine
# Summary of the method: as §2
# rice = experiment: Test B flooded paddy test; type: in vivo, Oryza sativa; conditions: Flood, scale of 0 to 100 where 0 is no effect and 100 is complete control
# Summary of the method: (§3)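 First, plants reach the 2-leaf stage; next, pots are flooded to 3 cm and compound is delivered into the water; finally, after 13 to 15 greenhouse days at constant depth, injury is graded visually from 0 to 100 against controls.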
# sedge, umbrella = experiment: Test B flooded paddy test; type: in vivo, Cyperus difformis; conditions: Flood, scale of 0 to 100 where 0 is no effect and 100 is complete control
# Summary of the method: as §3
# ducksalad = experiment: Test B flooded paddy test; type: in vivo, Heteranthera limosa; conditions: Flood, scale of 0 to 100 where 0 is no effect and 100 is complete control
# Summary of the method: as §3
# barnyardgrass [2] = experiment: Test B flooded paddy test; type: in vivo, Echinochloa crus-galli; conditions: Flood, scale of 0 to 100 where 0 is no effect and 100 is complete control
# Summary of the method: as §3
# [3] = Postemergence, 125 g ai/ha, visual rating on 0 to 100 scale (0 no effect, 100 complete control), approx. 10 days
# [4] = Postemergence, 500 g ai/ha, 0 to 100 scale (0 no effect, 100 complete control)
# [5] = Preemergence, 125 g ai/ha, 0 to 100 scale where 0 is no effect and 100 is complete control
# [6] = preemergence, 500 g ai/ha, 0 to 100 scale, 0 is no effect and 100 is complete control
# [7] = Preemergence, 500 g ai/ha, visual rating on 0 to 100 scale (0 no effect, 100 complete control)
# [8] = 125 g ai/ha, visual rating on 0 to 100 scale (0 no effect, 100 complete control), approx. 10 days
# [9] = 500 g ai/ha, 0 to 100 scale (0 no effect, 100 complete control)
# [10] = Postemergence, 125 g ai/ha, 0 to 100 scale, 0 is no effect, 100 is complete control
# [11] = 125 g ai/ha, 0 to 100 scale, 0 is no effect, 100 is complete control
# [12] = 125 g ai/ha, visual rating, 0 to 100 scale, 0 no effect, 100 complete control, approximately 10 days, preemergence
smiles,measurement,setting,value
O=C1NCC(c2cc3ccccc3s2)C1C(=O)Nc1ccccc1F (stereo not drawn) [Compound 295],"Plant response rating, Barnyardgrass",barnyardgrass [1]; [3],0
same,"Plant response rating, Barnyardgrass",barnyardgrass [1]; [4],50
same,"Plant response rating, Barnyardgrass",barnyardgrass [1]; [5],0
same,"Plant response rating, Barnyardgrass",barnyardgrass [1]; [6],70
same,"Plant response rating, Kochia",kochia; [3],0
same,"Plant response rating, Kochia",kochia; [4],0
same,"Plant response rating, Kochia",kochia; [5],0
same,"Plant response rating, Kochia",kochia; [6],0
same,"Plant response rating, Ragweed",ragweed; [3],0
same,"Plant response rating, Ragweed",ragweed; [4],0
same,"Plant response rating, Ragweed",ragweed; [5],0
same,"Plant response rating, Ragweed",ragweed; [6],0
same,"Plant response rating, Ryegrass, Italian","ryegrass, Italian; [3]",0
same,"Plant response rating, Ryegrass, Italian","ryegrass, Italian; [4]",0
same,"Plant response rating, Ryegrass, Italian","ryegrass, Italian; [5]",0
same,"Ryegrass, Italian plant response rating","ryegrass, Italian; [7]",0
same,"Plant response rating, Foxtail, Giant",giant foxtail; [3],0
same,"Plant response rating, Foxtail, Giant",giant foxtail; [4],0
same,"Plant response rating, Foxtail, Giant",giant foxtail; [5],0
same,"Plant response rating, Foxtail, Giant",giant foxtail; [6],20
same,"Plant response rating, Pigweed",pigweed; [3],0
same,"Plant response rating, Pigweed",pigweed; [4],0
same,"Plant response rating, Pigweed",pigweed; [5],0
same,"Plant response rating, Pigweed",pigweed; [6],0
same,"Plant response rating, Wheat",wheat; [8],0
same,"Plant response rating, Wheat",wheat; [9],0
same,"Plant response rating, Corn",corn; [8],0
same,"Plant response rating, Corn",corn; [9],0
same,"Plant response rating, Blackgrass",blackgrass; [8],0
same,"Plant response rating, Blackgrass",blackgrass; [9],0
same,"Plant response rating, Galium",galium; [8],0
same,"Plant response rating, Galium",galium; [9],10
same,"Plant response rating, Rice",rice; 500 g ai/ha,0
same,"Plant response rating, Sedge, Umbrella","sedge, umbrella; 500 g ai/ha",0
same,"Plant response rating, Ducksalad",ducksalad; 500 g ai/ha,40
same,"Plant response rating, Barnyardgrass",barnyardgrass [2]; 500 g ai/ha,30
O=C1NCC(c2cc3ccccc3o2)C1C(=O)Nc1ccccc1F (racemic) [Compound 281],"Plant response rating, Barnyardgrass",barnyardgrass [1]; [10],40
same,"Plant response rating, Barnyardgrass",barnyardgrass [1]; [4],70
same,"Plant response rating, Barnyardgrass",barnyardgrass [1]; [5],50
same,"Plant response rating, Barnyardgrass",barnyardgrass [1]; [6],70
same,"Plant response rating, Kochia",kochia; [10],0
same,"Plant response rating, Kochia",kochia; [4],0
same,"Plant response rating, Kochia",kochia; [5],0
same,"Plant response rating, Kochia",kochia; [6],0
same,"Plant response rating, Ragweed",ragweed; [3],0
same,"Plant response rating, Ragweed",ragweed; [4],0
same,"Plant response rating, Ragweed",ragweed; [5],0
same,"Plant response rating, Ragweed",ragweed; [6],0
same,"Plant response rating, Ryegrass, Italian","ryegrass, Italian; [3]",0
same,"Plant response rating, Ryegrass, Italian","ryegrass, Italian; [4]",0
same,"Plant response rating, Ryegrass, Italian","ryegrass, Italian; [5]",0
same,"Plant response rating, Ryegrass, Italian","ryegrass, Italian; [6]",0
same,"Plant response rating, Foxtail, Giant",giant foxtail; [10],0
same,"Plant response rating, Foxtail, Giant",giant foxtail; [4],0
same,"Plant response rating, Foxtail, Giant",giant foxtail; [5],10
same,"Plant response rating, Foxtail, Giant",giant foxtail; [6],70
same,"Plant response rating, Pigweed",pigweed; [3],0
same,"Plant response rating, Pigweed",pigweed; [4],0
same,"Plant response rating, Pigweed",pigweed; [5],0
same,"Plant response rating, Pigweed",pigweed; [6],0
same,"Plant response rating, Wheat",wheat; [8],0
same,"Plant response rating, Wheat",wheat; [9],0
same,"Plant response rating, Corn",corn; [11],0
same,"Plant response rating, Corn",corn; [9],0
same,"Plant response rating, Blackgrass",blackgrass; [11],0
same,"Plant response rating, Blackgrass",blackgrass; [9],0
same,"Plant response rating, Galium",galium; [11],0
same,"Plant response rating, Galium",galium; [9],0
same,"Plant response rating, Rice",rice; 500 g ai/ha,0
same,"Plant response rating, Sedge, Umbrella","sedge, umbrella; 500 g ai/ha",0
same,"Plant response rating, Ducksalad",ducksalad; 500 g ai/ha,75
same,"Plant response rating, Barnyardgrass",barnyardgrass [2]; 500 g ai/ha,20
CC(C)(C)c1cccc(C2CNC(=O)C2C(=O)Nc2ccccc2C(F)(F)F)c1 (racemic) [Compound 201],"Plant response rating, Barnyardgrass",barnyardgrass [1]; [12],0
same,"Plant response rating, Barnyardgrass",barnyardgrass [1]; [10],0
same,"Barnyardgrass plant response rating (0 to 100 scale, 0 is no effect, 100 is complete control)","barnyardgrass [1]; Postemergence, 500 g ai/ha",30
same,"Plant response rating, Barnyardgrass",barnyardgrass [1]; [6],20
same,"Plant response rating, Kochia",kochia; [12],0
same,"Plant response rating, Kochia",kochia; [10],0
same,"Kochia plant response rating (0 to 100 scale, 0 is no effect, 100 is complete control)","kochia; Postemergence, 500 g ai/ha",0
same,"Plant response rating, Kochia",kochia; [6],0
same,"Plant response rating, Ragweed",ragweed; [12],0
same,"Plant response rating, Ragweed",ragweed; [10],0
same,"Ragweed plant response rating (0 to 100 scale, 0 is no effect, 100 is complete control)","ragweed; Postemergence, 500 g ai/ha",0
same,"Plant response rating, Ragweed",ragweed; [6],0
same,"Plant response rating, Ryegrass, Italian","ryegrass, Italian; [12]",0
same,"Plant response rating, Ryegrass, Italian","ryegrass, Italian; [10]",0
same,"Ryegrass, Italian plant response rating (0 to 100 scale, 0 is no effect, 100 is complete control)","ryegrass, Italian; Postemergence, 500 g ai/ha",0
same,"Plant response rating, Ryegrass, Italian","ryegrass, Italian; [6]",0
same,"Plant response rating, Foxtail, Giant",giant foxtail; [12],20
same,"Plant response rating, Foxtail, Giant",giant foxtail; [10],0
same,"Foxtail, Giant plant response rating (0 to 100 scale, 0 is no effect, 100 is complete control)","giant foxtail; Postemergence, 500 g ai/ha",0
same,"Plant response rating, Foxtail, Giant",giant foxtail; [6],30
same,"Plant response rating, Pigweed",pigweed; [12],0
same,"Plant response rating, Pigweed",pigweed; [10],0
same,"Pigweed plant response rating (0 to 100 scale, 0 is no effect, 100 is complete control)","pigweed; Postemergence, 500 g ai/ha",0
same,"Plant response rating, Pigweed",pigweed; [6],0
same,"Plant response rating, Wheat",wheat; [11],0
same,"Wheat plant response rating (0 to 100 scale, 0 is no effect, 100 is complete control)",wheat; 500 g ai/ha,0
same,"Plant response rating, Corn",corn; [11],0
same,"Corn plant response rating (0 to 100 scale, 0 is no effect, 100 is complete control)",corn; 500 g ai/ha,0
same,"Plant response rating, Blackgrass",blackgrass; [11],0
same,"Blackgrass plant response rating (0 to 100 scale, 0 is no effect, 100 is complete control)",blackgrass; 500 g ai/ha,0
same,"Plant response rating, Galium",galium; [11],0
same,"Galium plant response rating (0 to 100 scale, 0 is no effect, 100 is complete control)",galium; 500 g ai/ha,0
same,"Plant response rating, Rice",rice; 1000 g ai/ha,0
same,"Plant response rating, Sedge, Umbrella","sedge, umbrella; 1000 g ai/ha",0
same,"Plant response rating, Ducksalad",ducksalad; 1000 g ai/ha,70
same,"Plant response rating, Barnyardgrass",barnyardgrass [2]; 1000 g ai/ha,20
O=C1NCC(c2cc3ccccc3s2)C1C(=O)Nc1ccccc1C(F)(F)F (stereo not drawn) [Compound 297],"Plant response rating, Barnyardgrass",barnyardgrass [1]; [3],0
same,"Plant response rating, Barnyardgrass",barnyardgrass [1]; [4],0
same,"Plant response rating, Barnyardgrass",barnyardgrass [1]; [5],0
same,"Plant response rating, Barnyardgrass",barnyardgrass [1]; [6],50
same,"Plant response rating, Kochia",kochia; [3],0
same,"Plant response rating, Kochia",kochia; [4],0
same,"Plant response rating, Kochia",kochia; [5],0
same,"Plant response rating, Kochia",kochia; [6],0
same,"Plant response rating, Ragweed",ragweed; [3],0
same,"Plant response rating, Ragweed",ragweed; [4],0
same,"Plant response rating, Ragweed",ragweed; [5],0
same,"Plant response rating, Ragweed",ragweed; [6],0
same,"Plant response rating, Ryegrass, Italian","ryegrass, Italian; [3]",0
same,"Plant response rating, Ryegrass, Italian","ryegrass, Italian; [4]",0
same,"Plant response rating, Ryegrass, Italian","ryegrass, Italian; [5]",0
same,"Ryegrass, Italian plant response rating","ryegrass, Italian; [7]",0
same,"Plant response rating, Foxtail, Giant",giant foxtail; [3],0
same,"Plant response rating, Foxtail, Giant",giant foxtail; [4],0
same,"Plant response rating, Foxtail, Giant",giant foxtail; [5],30
same,"Plant response rating, Foxtail, Giant",giant foxtail; [6],70
same,"Plant response rating, Pigweed",pigweed; [3],0
same,"Plant response rating, Pigweed",pigweed; [4],0
same,"Plant response rating, Pigweed",pigweed; [5],0
same,"Plant response rating, Pigweed",pigweed; [6],0
same,"Plant response rating, Wheat",wheat; [8],0
same,"Plant response rating, Wheat",wheat; [9],0
same,"Plant response rating, Corn",corn; [8],0
same,"Plant response rating, Corn",corn; [9],0
same,"Plant response rating, Blackgrass",blackgrass; [8],0
same,"Plant response rating, Blackgrass",blackgrass; [9],10
same,"Plant response rating, Galium",galium; [8],0
same,"Plant response rating, Galium",galium; [9],0
same,"Plant response rating, Rice",rice; 500 g ai/ha,0
same,"Plant response rating, Sedge, Umbrella","sedge, umbrella; 500 g ai/ha",0
same,"Plant response rating, Ducksalad",ducksalad; 500 g ai/ha,0
same,"Plant response rating, Barnyardgrass",barnyardgrass [2]; 500 g ai/ha,0
